Test results reported in patent publication US20240252581A1, “COMPOSITIONS AND METHODS FOR TREATING RESPIRATORY DISTRESS” (S.I.S. SHULOV INNOVATIVE SCIENCE LTD., priority 2021, published 2024).
Where “and” joins values, the source holds several entries; their conditions need not be identical. Equal values may be shown once. Square brackets hold non-standard residues; d marks the D form. Peptide text beside a SMILES is read from it. * marks the point of attachment. pGlu = O=C1CC[C@@H](C(=O)O)N1; Octanoyl = CCCCCCCC(=O)*

Test system: inflammatory cytokines in BALF
Test: LPS-induced acute lung injury / ARDS mouse model: BALF cytokine concentrations (multiplex ELISA)
Format: in vivo, BALB/c mice
Conditions: BALF
Description: In order to test the efficacy of ZEP3 sodium on lung inflammation, the lipopolysaccharide (LPS)-induced acute lung injury model was used. In particular, LPS was administered intratracheally at doses of 10 or 40 mg/kg body weight (BW) corresponding to 0.2 or 0.8 mg/mouse, respectively.
ZEP3 sodium was administered by inhalation (INH) at doses of 25 or 250 mg/kg BW (0.5 or 5 mg/mouse, respectively), or intratracheally (IT) at doses of 5 or 20 mg/kg BW (0.1 or 0.4 mg/mouse, respectively) 6 hours after LPS administration and its effect was measured 72 hours following administration in the branchial alveolar fluid (BALF) using FACS instrumentation.
To detect cytokine release in lungs fluid, cytokine concentrations were assessed in BALF samples using high sensitivity multiplex ELISA assays for: IFN-γ, IL-1α, IL-5, IL-6, IL-10, IL-12 (p70), IL-17A, KC, MCP-1, TNF-α, IP-10, RANTES, G-CSF, MIP-1α and RANTES. ZEP3Na administered intratracheally at 0.1 and 0.4 mg per mouse after instillation of 0.2 mg LPS inhibited the concentration of following interleukins: IL-1α, IL-6, IL-10, IL-12, IL-17, KC, MCP-1, TNF-α and G-CSF.

[1] = Group 2: ZEP3Na 0.1 mg IT, no LPS, group mean
[2] = Group 2: ZEP3Na 0.1 mg IT, no LPS, individual mice
[3] = Group 3: ZEP3Na 0.4 mg IT, no LPS, group mean
[4] = Group 3: ZEP3Na 0.4 mg IT, no LPS, individual mice
[5] = Group 4: LPS 0.8 mg + ZEP3Na 0.1 mg IT, group mean
[6] = Group 4: LPS 0.8 mg + ZEP3Na 0.1 mg IT, individual mice
[7] = Group 5: LPS 0.8 mg + ZEP3Na 0.4 mg IT, group mean
[8] = Group 5: LPS 0.8 mg + ZEP3Na 0.4 mg IT, individual mice
[9] = Group 8: LPS 0.2 mg + ZEP3Na 0.1 mg IT, group mean
[10] = Group 8: LPS 0.2 mg + ZEP3Na 0.1 mg IT, individual mice
[11] = Group 9: LPS 0.2 mg + ZEP3Na 0.4 mg IT, group mean

CCCCCCCC(=O)NCCCC[C@H](NC(=O)[C@H](Cc1c[nH]c2ccccc12)NC(=O)[C@H](CC(N)=O)NC(=O)[C@@H]1CCC(=O)N1)C(=O)O [ZEP3Na, pGlu-Asn-Trp-Lys(Octanoyl)-ONa] ([pGlu]NWK(Octanoyl)-OH)
production of IL-12 and TNF-α (0.8 mg LPS treated mice, 0.1 and 0.4 mg): significantly inhibited
G-CSF [1]: 2.60 pg/mL
IL-12 (p70) [1]: 7.31 pg/mL
IL-17A [1]: 0.35 pg/mL
KC [1]: 59.28 pg/mL
MCP-1 [1]: 0.00 pg/mL
G-CSF [2]: 2.37 pg/ml (2×) and 1.99 pg/ml (2×) and 5.06 pg/ml and 2.76 pg/ml (2×) and 3.53 pg/ml and 3.15 pg/ml
G-CSF (pg/ml) [2]: undetected
IL-12 (p70) [2]: 9.22 pg/ml (2×) and 9.10 pg/ml and 8.79 pg/ml (2×) and 7.39 pg/ml and 5.38 pg/ml and 4.32 pg/ml and 10.92 pg/ml
IL-12 (p70) (pg/ml) [2]: undetected
IL-17A [2]: 0.63 pg/mL and 2.12 pg/mL and 0.73 pg/mL
IL-17A (pg/ml) [2]: undetected
KC [2]: 46.08 pg/mL and 58.58 pg/mL and 58.91 pg/mL and 89.58 pg/mL and 95.87 pg/mL and 47.76 pg/mL and 43.47 pg/mL and 64.27 pg/mL and 42.44 pg/mL and 45.89 pg/mL
MCP-1 (pg/ml) [2]: undetected
G-CSF [3]: 3.26 pg/mL
IL-12 (p70) [3]: 7.54 pg/mL
IL-17A [3]: 1.26 pg/mL
KC [3]: 70.95 pg/mL
MCP-1 [3]: 4.89 pg/mL
G-CSF [4]: 7.65 pg/ml and 3.47 pg/ml (2×) and 2.20 pg/ml (2×) and 6.40 pg/ml and 3.89 pg/ml
G-CSF (pg/ml) [4]: undetected
IL-12 (p70) [4]: 8.49 pg/ml (2×) and 7.27 pg/ml and 7.92 pg/ml and 5.27 pg/ml and 9.45 pg/ml and 7.21 pg/ml and 5.22 pg/ml and 8.54 pg/ml
IL-17A [4]: 2.02 pg/ml and 1.13 pg/ml and 1.36 pg/ml and 1.47 pg/ml and 1.20 pg/ml (2×) and 1.06 pg/ml and 0.73 pg/ml and 1.14 pg/ml
KC [4]: 56.01 pg/mL and 58.30 pg/mL and 63.33 pg/mL and 62.30 pg/mL and 71.12 pg/mL and 68.10 pg/mL and 52.39 pg/mL and 46.36 pg/mL and 160.65 pg/mL
MCP-1 [4]: 11.53 pg/ml and 11.29 pg/ml (2×) and 9.93 pg/ml
MCP-1 (pg/ml) [4]: undetected
G-CSF [5]: 138.16 pg/mL
IL-12 (p70) [5]: 124.09 pg/mL
IL-17A [5]: 837.99 pg/mL
KC [5]: 466.06 pg/mL
MCP-1 [5]: 70.18 pg/mL
G-CSF [6]: 250.42 pg/mL and 141.30 pg/mL and 164.43 pg/mL and 89.05 pg/mL and 416.35 pg/mL and 50.11 pg/mL and 131.80 pg/mL
G-CSF (pg/ml) [6]: undetected
IL-12 (p70) [6]: 6.33 pg/mL and 5.38 pg/mL and 235.43 pg/mL and 103.27 pg/mL and 192.86 pg/mL and 41.94 pg/mL and 414.83 pg/mL and 27.99 pg/mL and 88.80 pg/mL
IL-17A [6]: 1287.47 pg/mL and 55.37 pg/mL and 719.90 pg/mL and 51.28 pg/mL and 5285.06 pg/mL and 77.04 pg/mL and 65.83 pg/mL
IL-17A (pg/ml) [6]: undetected
KC [6]: 39.18 pg/mL and 29.08 pg/mL and 847.35 pg/mL and 522.41 pg/mL and 798.01 pg/mL and 253.77 pg/mL and 831.88 pg/mL and 234.34 pg/mL and 638.49 pg/mL
MCP-1 [6]: 70.21 pg/mL and 76.09 pg/mL and 93.90 pg/mL and 58.01 pg/mL and 114.01 pg/mL and 53.91 pg/mL and 165.51 pg/mL
MCP-1 (pg/ml) [6]: undetected
G-CSF [7]: 190.32 pg/mL
IL-12 (p70) [7]: 102.59 pg/mL
IL-17A [7]: 204.85 pg/mL
KC [7]: 773.23 pg/mL
MCP-1 [7]: 190.69 pg/mL
G-CSF [8]: 491.06 pg/mL and 209.62 pg/mL and 268.52 pg/mL and 300.90 pg/mL and 7.65 pg/mL and 3.47 pg/mL and 124.37 pg/mL and 116.99 pg/mL
IL-12 (p70) [8]: 7.58 pg/mL and 215.64 pg/mL and 368.44 pg/mL and 12.63 pg/mL and 7.60 pg/mL and 194.02 pg/mL and 14.83 pg/mL
IL-12 (p70) (pg/ml) [8]: undetected
IL-17A [8]: 7.23 pg/mL and 265.69 pg/mL and 1207.05 pg/mL and 13.05 pg/mL and 2.04 pg/mL and 0.52 pg/mL and 136.95 pg/mL and 6.24 pg/mL
KC [8]: 1115.74 pg/mL and 1099.42 pg/mL and 1195.30 pg/mL and 488.61 pg/mL and 54.20 pg/mL and 57.06 pg/mL and 981.92 pg/mL and 1193.59 pg/mL
MCP-1 [8]: 810.24 pg/mL and 166.84 pg/mL and 79.29 pg/mL and 307.60 pg/mL and 15.45 pg/mL and 83.52 pg/mL and 62.54 pg/mL
MCP-1 (pg/ml) [8]: undetected
G-CSF [9]: 187.95 pg/mL
IL-12 (p70) [9]: 264.97 pg/mL
IL-17A [9]: 724.27 pg/mL
KC [9]: 1023.71 pg/mL
MCP-1 [9]: 133.24 pg/mL
G-CSF [10]: 175.22 pg/mL and 144.90 pg/mL and 109.99 pg/mL and 383.77 pg/mL and 239.49 pg/mL and 199.64 pg/mL and 249.05 pg/mL and 93.60 pg/mL and 177.33 pg/mL and 106.48 pg/mL
IL-12 (p70) [10]: 247.16 pg/mL and 386.37 pg/mL and 66.34 pg/mL and 199.27 pg/mL and 322.18 pg/mL and 422.04 pg/mL and 317.94 pg/mL and 97.45 pg/mL and 202.28 pg/mL and 388.69 pg/mL
IL-17A [10]: 553.70 pg/mL and 1615.14 pg/mL and 285.28 pg/mL and 1776.16 pg/mL and 862.84 pg/mL and 989.92 pg/mL and 458.49 pg/mL and 111.01 pg/mL and 281.41 pg/mL and 308.73 pg/mL
KC [10]: 782.52 pg/mL and 1528.47 pg/mL and 503.00 pg/mL and 672.71 pg/mL and 1548.79 pg/mL and 1057.28 pg/mL and 1346.32 pg/mL and 808.21 pg/mL and 1086.03 pg/mL and 903.77 pg/mL
MCP-1 [10]: 107.46 pg/mL and 158.19 pg/mL and 142.05 pg/mL and 85.01 pg/mL and 91.65 pg/mL and 135.00 pg/mL and 216.90 pg/mL and 114.81 pg/mL and 109.95 pg/mL and 171.38 pg/mL
G-CSF [11]: 172.12 pg/mL
IL-12 (p70) [11]: 161.01 pg/mL
IL-17A [11]: 584.07 pg/mL
